Experimental data as given in patent US12662494B2, “Optically active bridged piperidine derivative” (Sumitomo Pharma Co., Ltd., priority 2018, dated 2026).

What was measured:
[1] = test system: MOLM-13 cells; assay: Test 2: inhibition of cell proliferation, MOLM-13; format: cell-based; conditions: 7 days, PrestoBlue cell viability
Procedure: (§1) Test 2: Test for Evaluating the Inhibition of Cell Proliferation
(§2) RS4; 11 cells were obtained from American Type Culture Collection (ATCC). The cells were cultured at 37° C. in the presence of 5% CO2 in RPMI 1640 medium containing 10% fetal bovine serum and 1% penicillin/streptomycin. MOLM-13 cells were separately obtained from DSMZ (Deutsche Sammlung von Mikroorganismen und Zellkulturen GmbH). The cells were cultured at 37° C. in the presence of 5% CO2 in RPMI 1640 medium containing […] and 1% penicillin/streptomycin.
(§3) The cells were plated to a 96-well plate in 2000 cells/well, each test compound was added thereto to adjust the final concentration of DMSO to 0.1% of DMSO, and the cells were cultured for 7 days. After the cultivation, the cell viability was calculated with PrestoBlue™ Cell Viability Reagent (Invitrogen, A13261). The IC50 value was calculated from a survival curve, that corresponds to the concentration of the test compound at which the cell proliferation inhibition rate is 50%.

[2] = Test 4: pharmacokinetic study, oral, mouse; conditions: for AUC(0-t): male, NOD.CB17-Prkdcscid/J, plasma, po, 100 mg/kg; for compound-exposure in plasma (in words): summary of Test 4 table, oral 100 mg/kg
Procedure: Test 4: Pharmacokinetic Study
The test compound suspended in 0.5% methylcellulose was orally administered to 7-week-old male NOD. CB17-Prkdcscid/J mouse in a dose of 100 mg/kg. The blood sample was taken from jugular vein without anesthesia over time for 24 hours. The blood sample was centrifuged to obtain plasma. The plasma was pre-treated by methanol extraction method, and then analyzed with an LC-MS/MS to determine the concentration of the test compound. Based on the data from 0 hour after the administration until the time (t) when there was the final detection in the plasma, AUC was calculated by trapezoidal method.

[3] = test system: RS4; 11 cells; assay: Test 2: inhibition of cell proliferation, RS4;11; format: cell-based; conditions: for IC50: RS4;11 cells, 7 days, PrestoBlue cell viability; for cell proliferation inhibition activity, good (in words) / cell proliferation inhibitory activity, potent (in words): summary of Test 2 table, RS4;11 and MOLM-13
Procedure: as §1, §2, §3

Compound | IC50 ([1]; Homo sapiens, 168 h) | AUC(0-t) [2] | compound-exposure in plasma (in words) [2] | IC50 ([3]; Homo sapiens, 168 h) | cell proliferation inhibition activity, good (in words) [3] | cell proliferation inhibitory activity, potent (in words) [3] | IC50 [1] | IC50 [3]
C=C1C[C@@H]2CC[C@H]1[C@@H](C(=O)N1CCC3(CC1)CN(c1c(C(F)(F)F)cnc4sc(CC(F)(F)F)cc14)C3)N2 [Example 27, [(1S,3S,4R)-5-Methylidene-2-azabicyclo[2.2.2]octan-3-yl]{2-[2-(2,2,2-trifluoroethyl)-5-(trifluoromethyl)thieno[2,3-b]pyridin-4-yl]-2,7-diazaspiro[3.5]nonan-7-yl}methanone] | 70 nM | 17300 ng·h/mL | good compound-exposure in plasma | 50 nM | good cell proliferation inhibition activity | potent cell proliferation inhibitory activity | – | –
C=C1C[C@@H]2CC[C@H]1[C@@H](C(=O)N1CCC3(CC1)CN(c1c(C(F)(F)F)cnc4sc(CC(F)(F)F)cc14)C3)N2 [Example 21, [(1S,3S,4R)-5-(^2H2)methylidene-2-azabicyclo[2.2.2]octan-3-yl]{2-[2-(2,2,2-trifluoroethyl)-5-(trifluoromethyl)thieno[2,3-b]pyridin-4-yl]-2,7-diazaspiro[3.5]nonan-7-yl}methanone] | – | – | – | – | – | – | < 30 nM | < 30 nM
C=C1C[C@@H]2CC[C@H]1[C@@H](C(=O)N1CCC3(CC1)CN(c1c(C#N)cnc4sc(CC(F)(F)F)cc14)C3)N2 [Example 28, 4-{7-[(1S,3S,4R)-5-Methylidene-2-azabicyclo[2.2.2]octane-3-carbonyl]-2,7-diazaspiro[3.5]nonan-2-yl}-2-(2,2,2-trifluoroethyl)thieno[2,3-b]pyridine-5-carbonitrile] | 60 nM | 11600 ng·h/mL | good compound-exposure in plasma | 70 nM | – | – | – | –
C=C1C[C@@H]2C[C@H]1[C@@H](C(=O)N1CCC3(CC1)CN(c1c(C#N)cnc4sc(CC(F)(F)F)cc14)C3)N2 [Example 26, 4-{7-[(1S,3S,4R)-5-methylidene-2-azabicyclo[2.2.1]heptane-3-carbonyl]-2,7-diazaspiro[3.5]nonan-2-yl}-2-(2,2,2-trifluoroethyl)thieno[2,3-b]pyridine-5-carbonitrile] | 300 nM | – | – | 300 nM | – | – | – | –
C=C1C[C@@H]2C[C@H]1[C@@H](C(=O)N1CCC3(CC1)CN(c1c(C(F)(F)F)cnc4sc(CC(F)(F)F)cc14)C3)N2 [Example 23, [(1S,3S,4R)-5-methylidene-2-azabicyclo[2.2.1]heptan-3-yl]{2-[2-(2,2,2-trifluoroethyl)-5-(trifluoromethyl)thieno[2,3-b]pyridin-4-yl]-2,7-diazaspiro[3.5]nonan-7-yl}methanone] | 110 nM | – | – | 100 nM | – | – | – | –
[2H]C([2H])=C1C[C@@H]2CC[C@H]1[C@@H](C(=O)N1CC3(C1)CN(c1c(C(F)(F)F)cnc4sc(CC(F)(F)F)cc14)C3)N2 [Example 17, [(1S,3S,4R)-5-(^2H2)methylidene-2-azabicyclo[2.2.2]octan-3-yl]{6-[2-(2,2,2-trifluoroethyl)-5-(trifluoromethyl)thieno[2,3-b]pyridin-4-yl]-2,6-diazaspiro[3.3]heptan-2-yl}methanone] | – | – | – | – | good cell proliferation inhibition activity | potent cell proliferation inhibitory activity | – | –
N#Cc1cnc2sc(CC(F)(F)F)cc2c1N1CC2(CCN(C(=O)[C@H]3N[C@H]4CC[C@@H]3C[C@@H]4CC3CC3)CC2)C1 [Example 25, 4-{7-[(1S,3S,4R,6S)-6-(cyclopropylmethyl)-2-azabicyclo[2.2.2]octane-3-carbonyl]-2,7-diazaspiro[3.5]nonan-2-yl}-2-(2,2,2-trifluoroethyl)thieno[2,3-b]pyridine-5-carbonitrile] | 40 nM | – | – | < 30 nM | good cell proliferation inhibition activity | potent cell proliferation inhibitory activity | – | –
C=C1C[C@@H]2CC[C@H]1[C@@H](C(=O)N1CC3(C1)CN(c1c(C(F)(F)F)cnc4sc(CC(F)(F)F)cc14)C3)N2 [Example 17, [(1S,3S,4R)-5-(^2H2)methylidene-2-azabicyclo[2.2.2]octan-3-yl]{6-[2-(2,2,2-trifluoroethyl)-5-(trifluoromethyl)thieno[2,3-b]pyridin-4-yl]-2,6-diazaspiro[3.3]heptan-2-yl}methanone] | – | – | – | – | – | – | < 30 nM | < 30 nM
O=C([C@H]1N[C@H]2CC[C@@H]1C[C@@H]2CC1CC1)N1CCC2(CC1)CN(c1c(C(F)(F)F)cnc3sc(CC(F)(F)F)cc13)C2 [Example 22, [(1S,3S,4R,6S)-6-(cyclopropylmethyl)-2-azabicyclo[2.2.2]octan-3-yl]{2-[2-(2,2,2-trifluoroethyl)-5-(trifluoromethyl)thieno[2,3-b]pyridin-4-yl]-2,7-diazaspiro[3.5]nonan-7-yl}methanone] | 30 nM | – | – | < 30 nM | good cell proliferation inhibition activity | potent cell proliferation inhibitory activity | – | –
C=C1C[C@@H]2CC[C@H]1[C@@H](C(=O)N1CCC3(CC1)CN(c1c(C#N)cnc4sc(CC(F)(F)F)cc14)C3)N2 [Example 24, 4-{7-[(1S,3S,4R)-5-(^2H2)methylidene-2-azabicyclo[2.2.2]octane-3-carbonyl]-2,7-diazaspiro[3.5]nonan-2-yl}-2-(2,2,2-trifluoroethyl)thieno[2,3-b]pyridine-5-carbonitrile] | – | – | – | – | – | – | < 30 nM | < 30 nM
